Structures are written as SMILES. Structures can show the parent of a compound that is named as a salt.

The target in this test is T1, haematopoietic prostaglandin D synthase (H-PGDS) (Homo sapiens, UniProt O60760).
T1 construct: Full length human H-PGDS cDNA (Invitrogen Ultimate ORF 10H13026) was amplified by PCR; 6-His (N); TEV protease cleavage site (N); made in house; host or cells: E. coli BL21 (DE3*), vector pET22b+
T1 sequence (O60760 whole entry): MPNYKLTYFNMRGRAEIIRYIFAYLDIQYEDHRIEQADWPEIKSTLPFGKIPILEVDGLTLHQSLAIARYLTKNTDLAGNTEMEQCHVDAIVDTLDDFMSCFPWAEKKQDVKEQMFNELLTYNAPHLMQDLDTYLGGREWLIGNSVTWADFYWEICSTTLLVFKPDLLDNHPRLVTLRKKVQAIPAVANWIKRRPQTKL
Briefly: H-PGDS RapidFire high throughput mass spectrometry assay (conversion of PGH2 to PGD2). It is filed as biochemical. As to conditions: 10 nM H-PGDS, PGH2 formed in situ by COX-2 from arachidonic acid; read-out: Potency Range (mean pIC50) (converted). The method in brief:
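RapidFire SPE–MS read-out calculated percent conversion from relative PGD2 and PGF2α (substrate surrogate) levels. Recombinant full-length human H-PGDS (His-tag, E. coli) turned over PGH2, produced in situ at ˜10 μM by human COX-2 (FLAG-tag, Sf9 cells) acting on arachidonic acid.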
Regarding `COC(=O)C12CCC(NC(=O)N3CC(Oc4cccc5scnc45)C3)(CC1)CC2` [Example 327, Methyl 4-(3-(benzo[d]thiazol-4-yloxy)azetidine-1-carboxamido)bicyclo[2.2.2]octane-1-carboxylate], the IC50 is 10 to 79.4 nM.
`O=C(NC1CN(c2ccnc(Cl)n2)C1)N1CC(Oc2cccc3scnc23)C1` [Example 60, 3-(Benzo[d]thiazol-4-yloxy)-N-(1-(2-chloropyrimidin-4-yl)azetidin-3-yl)azetidine-1-carboxamide]: the IC50 was 10 to 79.4 nM.
As to `CCC(=O)C1CC2(CC(NC(=O)[C@H]3C[C@H](Oc4cc(F)cc5scnc45)C3)C2)C1` (stereo partly drawn) [Example 233, (trans)-3-((6-Fluorobenzo[d]thiazol-4-yl)oxy)-N-(6-propionylspiro[3.31]heptan-2-yl)cyclobutanecarboxamide], the IC50 was 10 to 79.4 nM.
As for `CC(N[C@H]1CC[C@H](NC(=O)[C@H]2C[C@H](Oc3cccc4cccnc34)C2)CC1)C(F)(F)F` (mixture of isomers) [Example 173, Racemic (trans)-3-(Quinolin-8-yloxy)-N-((trans)-4-((1,1,1-trifluoropropan-2-yl)amino)cyclohexyl)cyclobutanecarboxamide], the IC50 was 10 to 79.4 nM.
In the case of `COc1ccc(F)cc1O[C@H]1C[C@H](C(=O)NC2CCN(c3ccccn3)CC2)C1` [Example 157, (trans)-3-(5-Fluoro-2-methoxyphenoxy)-N-(1-(pyridin-2-yl)piperidin-4-yl)cyclobutanecarboxamide], the IC50 was 10 to 79.4 nM.
Next, `CNC(=O)c1ccc(N2CC(NC(=O)[C@H]3C[C@H](Oc4cccc5scnc45)C3)C2)nc1` [Example 38, 6-(3-((trans)-3-(Benzo[d]thiazol-4-yloxy)cyclobutanecarboxamido)azetidin-1-yl)-N-methylnicotinamide]: 10 to 79.4 nM; `CS(=O)(=O)N1CCC(NC(=O)N2CC(Oc3cccc4scnc34)C2)CC1` [Example 97, 3-(Benzo[d]thiazol-4-yloxy)-N-(1-(methylsulfonyl)piperidin-4-yl)azetidine-1-carboxamide]: 100 to 1000 nM; `Cc1nnc(NC(=O)[C@H]2C[C@H](Oc3cccc4scnc34)C2)s1` [Example 331, (trans)-3-(Benzo[d]thiazol-4-yloxy)-N-(5-methyl-1,3,4-thiadiazol-2-yl)cyclobutane-1-carboxamide]: 10 to 79.4 nM.
Regarding `CC(C)(O)C12CC(NC(=O)N3CC(Oc4cccc5scnc45)C3)(C1)C2` [Example 316, 3-(Benzo[d]thiazol-4-yloxy)-N-(3-(2-hydroxypropan-2-yl)bicyclo[1.1.1]pentan-1-yl)azetidine-1-carboxamide], the IC50 is 100 to 1000 nM.
For the molecule `CC(N[C@H]1CC[C@H](NC(=O)[C@H]2C[C@H](Oc3cc(F)ccc3OC(F)F)C2)CC1)C(F)F` (mixture of isomers) [Example 23, Racemic (trans)-3-(2-(Difluoromethoxy)-5-fluorophenoxy)-N-((trans)-4-((1,1-difluoropropan-2-yl)amino)cyclohexyl)cyclobutanecarboxamide], the IC50 is 10 to 79.4 nM.
The same measure for `CN(C)C(=O)c1csc(NC(=O)[C@H]2C[C@H](Oc3cccc4cccnc34)C2)n1` [Example 197, N,N-Dimethyl-2-((trans)-3-(quinolin-8-yloxy)cyclobutanecarboxamido)thiazole-4-carboxamide, trifluoroacetic acid salt]: less than 10 nM; for `CC(C)(O)[C@@H]1CC[C@@H](NC(=O)[C@H]2C[C@H](Oc3cc(F)cc4scnc34)C2)CO1` (racemic) [Example 139, Racemic (trans)-3-((6-Fluorobenzo[d]thiazol-4-yl)oxy)-N-((trans)-6-(2-hydroxypropan-2-yl)tetrahydro-2H-pyran-3-yl)cyclobutanecarboxamide]: 10 to 79.4 nM.
With `N#Cc1cnc(NC(=O)[C@H]2C[C@H](Oc3cccc4cccnc34)C2)s1` [Example 190, (trans)-N-(5-Cyanothiazol-2-yl)-3-(quinolin-8-yloxy)cyclobutanecarboxamide], the IC50 was 10 to 79.4 nM.
In the case of `O=C(NC1CN(c2nccc(Cl)n2)C1)[C@H]1C[C@H](Oc2cccc3scnc23)C1` [Example 74, (trans)-3-(Benzo[d]thiazol-4-yloxy)-N-(1-(4-chloropyrimidin-2-yl)azetidin-3-yl)cyclobutanecarboxamide], the IC50 is 10 to 79.4 nM.
Next, `CCOC(=O)c1nnc(NC(=O)[C@H]2C[C@H](Oc3cccc4cccnc34)C2)[nH]1` [Example 176, Ethyl 5-((trans)-3-(quinolin-8-yloxy)cyclobutanecarboxamido)-4H-1,2,4-triazole-3-carboxylate]: 100 to 1000 nM.
Next, `Cn1nnnc1NC(=O)[C@H]1C[C@H](Oc2cc(F)ccc2OC(F)F)C1` [Example 3, (trans)-3-(2-(Difluoromethoxy)-5-fluorophenoxy)-N-(1-methyl-1H-tetrazol-5-yl)cyclobutanecarboxamide]: 100 to 1000 nM.
With `C[C@@H]1[C@H](Oc2cccc3scnc23)CN1C(=O)N[C@H]1CC[C@H](C(C)(C)O)CC1` [Example 305, (2R,3R)-3-(Benzo[d]thiazol-4-yloxy)-N-((trans)-4-(2-hydroxypropan-2-yl)cyclohexyl)-2-methylazetidine-1-carboxamide], the IC50 was 10 to 79.4 nM.
For the molecule `Cc1nc(NC(=O)N2CC(Oc3cccc4scnc34)C2)ns1` [Example 336, 3-(Benzo[d]thiazol-4-yloxy)-N-(5-methyl-1,2,4-thiadiazol-3-yl)azetidine-1-carboxamide], the IC50 was 10 to 79.4 nM.
For the molecule `CC(N1CCC(NC(=O)N2CC(Oc3cccc4scnc34)C2)CC1)C(F)(F)F` (racemic) [Example 86, Racemic 3-(Benzo[d]thiazol-4-yloxy)-N-(1-(1,1,1-trifluoropropan-2-yl)piperidin-4-yl)azetidine-1-carboxamide], the IC50 was 10 to 79.4 nM.
The same measure for `CC(N[C@H]1CC[C@H](NC(=O)N2CC(Oc3cc(F)cc4scnc34)C2)CC1)C(F)F` (mixture of isomers) [Example 142, Racemic N-((trans)-4-((1,1-Difluoropropan-2-yl)amino)cyclohexyl)-3-((6-fluorobenzo[d]thiazol-4-yl)oxy)azetidine-1-carboxamide]: 10 to 79.4 nM; for `O=C(NC1CN(c2ccc(F)cn2)C1)[C@H]1C[C@H](Oc2cc(F)cc3scnc23)C1` [Example 120, (trans)-3-((6-Fluorobenzo[d]thiazol-4-yl)oxy)-N-(1-(5-fluoropyridin-2-yl)azetidin-3-yl)cyclobutanecarboxamide]: 10 to 79.4 nM; for `COc1ccc(F)cc1O[C@H]1C[C@H](C(=O)NC2CCN(c3cc(C#N)ccn3)CC2)C1` [Example 155, (trans)-N-(1-(4-Cyanopyridin-2-yl)piperidin-4-yl)-3-(5-fluoro-2-methoxyphenoxy)cyclobutanecarboxamide]: 10 to 79.4 nM.
Next, `CCOCCNC(=O)c1ccc(N2CC(NC(=O)[C@H]3C[C@H](Oc4cc(F)cc5scnc45)C3)C2)nn1` [Example 234, N-(2-Ethoxyethyl)-6-(3-((trans)-3-((6-fluorobenzo[d]thiazol-4-yl)oxy)cyclobutanecarboxamido)azetidin-1-yl)pyridazine-3-carboxamide]: 10 to 79.4 nM.
`Cc1nnc(NC(=O)[C@H]2C[C@H](Oc3cccc4ccoc34)C2)s1` [Example 266, (trans)-3-(Benzofuran-7-yloxy)-N-(5-methyl-1,3,4-thiadiazol-2-yl)cyclobutanecarboxamide]: the IC50 was 10 to 79.4 nM.

The values are drawn from patent publication US11053234B2 (GlaxoSmithKline Intellectual Property Development Limited, priority 2016, dated 2021).
